Assay results from PubChem BioAssay (NCI).
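Method: 48-hour compound exposure of cells in 96-well plates, five concentrations, linear interpolation of endpoints. The concentration for full growth arrest is given as TGI.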

Key:
Assay in all cases: growth of human tumour cells (NCI), 48 h
A498 renal = tested on: A498 renal
CCRF-CEM leukemia = tested on: CCRF-CEM leukemia
COLO 205 colon = tested on: COLO 205 colon
EKVX NSCLC = tested on: EKVX NSCLC
HCC-2998 colon = tested on: HCC-2998 colon
HCT-15 colon = tested on: HCT-15 colon
HL-60(TB) leukemia = tested on: HL-60(TB) leukemia
HT29 colon = tested on: HT29 colon
K-562 leukemia = tested on: K-562 leukemia
MALME-3M melanoma = tested on: MALME-3M melanoma
MCF7 breast = tested on: MCF7 breast
NCI-H522 lung = tested on: NCI-H522 lung
OVCAR-3 ovarian = tested on: OVCAR-3 ovarian
OVCAR-5 ovarian = tested on: OVCAR-5 ovarian
RPMI-8226 leukemia = tested on: RPMI-8226 leukemia
SF-268 CNS = tested on: SF-268 CNS
SK-MEL-2 melanoma = tested on: SK-MEL-2 melanoma
SK-MEL-28 melanoma = tested on: SK-MEL-28 melanoma
SN12C renal = tested on: SN12C renal
UO-31 renal = tested on: UO-31 renal

| Structure (SMILES) | TGI (A498 renal) [µM] | TGI (CCRF-CEM leukemia) [µM] | TGI (COLO 205 colon) [µM] | TGI (EKVX NSCLC) [µM] | TGI (HCC-2998 colon) [µM] | TGI (HCT-15 colon) [µM] | TGI (HL-60(TB) leukemia) [µM] | TGI (HT29 colon) [µM] | TGI (K-562 leukemia) [µM] | TGI (MALME-3M melanoma) [µM] | TGI (MCF7 breast) [µM] | TGI (NCI-H522 lung) [µM] | TGI (OVCAR-3 ovarian) [µM] | TGI (OVCAR-5 ovarian) [µM] | TGI (RPMI-8226 leukemia) [µM] | TGI (SF-268 CNS) [µM] | TGI (SK-MEL-2 melanoma) [µM] | TGI (SK-MEL-28 melanoma) [µM] | TGI (SN12C renal) [µM] | TGI (UO-31 renal) [µM] |
| --- | --- | --- | --- | --- | --- | --- | --- | --- | --- | --- | --- | --- | --- | --- | --- | --- | --- | --- | --- | --- |
| O=C(c1ccco1)C1CC(c2c(O)ccc3ccccc23)=NN1 (stereo not given) | 40.4 | 93 | 21.7 | 32.4 | 25.7 | > 100 | 53.8 | 24 | > 100 | 37.9 | 22 | 22.5 | 25.8 | 36.3 | 86.6 | 30.2 | 39.2 | 47.8 | 46 | 23.1 |
| CC1(C)OC2CC(=O)OCC23C1CC(=O)C1(C)C3CCC2(C)C(c3ccoc3)OC(=O)C3OC321 (stereo not given) | > 125 | > 125 | > 125 | > 58 | > 125 | > 125 | > 125 | > 125 | > 70.3 | > 125 | > 70.3 | > 125 | > 125 | > 125 | > 125 | > 125 | > 125 | > 125 | > 39.5 | > 125 |
